Reference: PubChem BioAssay (NCI)
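Cultured in 96-well plates, cells were exposed to test compound for 48 hours across five concentrations. TGI marks complete inhibition of growth.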

Legend:
Assay in all cases: NCI tumour cell line growth inhibition, 48 h
786-0 renal = test system: 786-0 renal
A498 renal = test system: A498 renal
A549 NSCLC = test system: A549 NSCLC
ACHN renal = test system: ACHN renal
CAKI-1 renal = test system: CAKI-1 renal
CCRF-CEM leukemia = test system: CCRF-CEM leukemia
COLO 205 colon = test system: COLO 205 colon
DLD-1 colon = test system: DLD-1 colon
DMS 114 small cell lung = test system: DMS 114 small cell lung
DMS 273 small cell lung = test system: DMS 273 small cell lung
EKVX NSCLC = test system: EKVX NSCLC
HCC-2998 colon = test system: HCC-2998 colon
HCT-116 colon = test system: HCT-116 colon
HCT-15 colon = test system: HCT-15 colon
HL-60(TB) leukemia = test system: HL-60(TB) leukemia
HOP-62 NSCLC = test system: HOP-62 NSCLC
HOP-92 NSCLC = test system: HOP-92 NSCLC
HT29 colon = test system: HT29 colon
IGROV1 ovarian = test system: IGROV1 ovarian
K-562 leukemia = test system: K-562 leukemia
KM12 colon = test system: KM12 colon
KM20L2 colon = test system: KM20L2 colon
LOX IMVI melanoma = test system: LOX IMVI melanoma
LXFL 529 NSCLC = test system: LXFL 529 NSCLC
M14 melanoma = test system: M14 melanoma
MALME-3M melanoma = test system: MALME-3M melanoma
MOLT-4 leukemia = test system: MOLT-4 leukemia
NCI-H226 lung = test system: NCI-H226 lung
NCI-H23 lung = test system: NCI-H23 lung
NCI-H460 lung = test system: NCI-H460 lung
NCI-H522 lung = test system: NCI-H522 lung
OVCAR-3 ovarian = test system: OVCAR-3 ovarian
OVCAR-4 ovarian = test system: OVCAR-4 ovarian
OVCAR-5 ovarian = test system: OVCAR-5 ovarian
OVCAR-8 ovarian = test system: OVCAR-8 ovarian
RPMI-8226 leukemia = test system: RPMI-8226 leukemia
RXF 393 renal = test system: RXF 393 renal
RXF-631 renal = test system: RXF-631 renal
SF-268 CNS = test system: SF-268 CNS
SF-539 CNS = test system: SF-539 CNS
SK-MEL-2 melanoma = test system: SK-MEL-2 melanoma
SK-MEL-28 melanoma = test system: SK-MEL-28 melanoma
SK-MEL-5 melanoma = test system: SK-MEL-5 melanoma
SK-OV-3 ovarian = test system: SK-OV-3 ovarian
SN12C renal = test system: SN12C renal
SNB-19 CNS = test system: SNB-19 CNS
SNB-75 CNS = test system: SNB-75 CNS
SNB-78 CNS = test system: SNB-78 CNS
SR leukemia = test system: SR leukemia
SW-620 colon = test system: SW-620 colon
TK-10 renal = test system: TK-10 renal
U251 CNS = test system: U251 CNS
UACC-257 melanoma = test system: UACC-257 melanoma
UO-31 renal = test system: UO-31 renal
XF 498 CNS = test system: XF 498 CNS
M19-MEL melanoma = test system: M19-MEL melanoma
SF-295 CNS = test system: SF-295 CNS
UACC-62 melanoma = test system: UACC-62 melanoma
HOP-18 NSCLC = test system: HOP-18 NSCLC

Measured: TGI

CC(=O)Nc1[nH]n(C)c(=O)c1-c1nnc(C)s1
not listed: M19-MEL melanoma | SF-295 CNS | UACC-62 melanoma | HOP-18 NSCLC
> 100 µM: all other assays above

CCCNC(=O)Nc1c([N+](=O)[O-])cc(C(F)(F)F)cc1[N+](=O)[O-]
73.7 µM: OVCAR-4 ovarian
61.4 µM: KM20L2 colon
82.7 µM: HL-60(TB) leukemia
76.1 µM: RXF 393 renal
61.2 µM: OVCAR-3 ovarian
97.5 µM: NCI-H522 lung
69.1 µM: M19-MEL melanoma
not listed: COLO 205 colon | DLD-1 colon | DMS 114 small cell lung | HCC-2998 colon | MALME-3M melanoma | SN12C renal | HOP-18 NSCLC
> 100 µM: all other assays above

CCOC(=O)c1c2ccc(/C=C/c3ccccn3)ccc-2c(C(=O)OCC)c1N
1.49 µM: SK-MEL-28 melanoma
0.966 µM: SF-268 CNS
not listed: HCT-116 colon | HOP-62 NSCLC | OVCAR-8 ovarian | RPMI-8226 leukemia | SN12C renal | SNB-78 CNS | SR leukemia | U251 CNS | XF 498 CNS
> 100 µM: all other assays above
